Laboratory results taken from PMC7898037, “Improving mitochondria and ER stability helps eliminate upper motor neuron degeneration that occurs due to mSOD1 toxicity and TDP‐43 pathology” (Clinical and Translational Medicine, 2021).

Experiments:
hSOD1^G93A‐UeGFP mice = test: Rotarod test, hSOD1^G93A‐UeGFP mice; type: in vivo; design: Rotarod, Mean Diff. (vehicle minus NU-9) / Rotarod, mean difference GS vehicle vs. GS NU-9 (20) / Rotarod, mean difference GS vehicle vs. GS NU-9 (100): unit not given here; settings: for Rotarod, group mean (Mean 1 / Mean 2 of 2way ANOVA multiple comparisons) / Rotarod, mean difference GS vehicle vs. GS NU-9 (20) / Rotarod, mean difference GS vehicle vs. GS NU-9 (100): GS (hSOD1G93A-UeGFP); for Rotarod, mean difference GS vehicle vs. GS NU-9 (20): vehicle minus NU-9 (20); for Rotarod, mean difference GS vehicle vs. GS NU-9 (100): vehicle minus NU-9 (100); for Rotarod, group mean (Mean 1 / Mean 2) / Rotarod, Mean Diff. (vehicle minus NU-9): hSOD1G93A-UeGFP mice; for Rotarod, Average: hSOD1G93A-UeGFP
Description: (§1) hSOD1^G93A‐UeGFP, prpTDP‐43^A315T‐UeGFP and WT‐UeGFP mice were weighed and the required NU‐9 dose per weight was calculated (20 or 100 mg/kg), which was administered once daily by oral gavage, starting at postnatal day (P)60 and continuing until P120. Animals from the untreated group received the vehicle (NMP and olive oil) only. For oral administration purposes, 20 ga × 38 mm plastic feeding tubes were used (Instech Laboratories, Inc). The gavage tip was inserted into the mouth directly over the tongue and into the pharynx. While observing the swallowing reflex, the tip was safely and smoothly slid into the esophagus. Once the administration was completed, the gavage tip was pulled straight out.
Behavior data were collected from hSOD1^G93A‐UeGFP and WT‐UeGFP mice (starting at P60 and every 7 days until P116) and from prpTDP‐43^A315T‐UeGFP mice (at P60, P90, and P120) with the following number of mice for each group: WT‐UeGFP vehicle (n = 10), hSOD1^G93A‐UeGFP vehicle (n = 6), WT‐UeGFP 20 mg/kg/day NU‐9 (n = 5), hSOD1^G93A‐UeGFP 20 mg/kg/day NU‐9 (n = 7), WT‐UeGFP 100 mg/kg/day NU‐9 (n = 11), hSOD1^G93A‐UeGFP 100 mg/kg/day NU‐9 (n = 9), prpTDP‐43^A315T‐UeGFP untreated (n ≥ 3), and prpTDP‐43^A315T‐UeGFP 100 mg/kg/day NU‐9 (n = 4) (Table S3).
Mice were placed on a rotating rod that accelerates linearly from 4 to 40 rpm (Rotarod, Ugo Basile), and the average time spent on the rotating rod for three consecutive trials was calculated for each mouse. Mice were allowed to run for a maximum of 5 min with a 5 min rest period between each run, and the latency to fall was recorded for three consecutive trials. The average of the three trials was taken as the data point for each mouse at the age tested, and the performance of different groups are reported as the mean ± SEM.

[1] = system: misfolded SOD1 in UMNs of hSOD1^G93A‐UeGFP mice; test: Quantification of misfolded SOD1 (B8H10) in UMNs; type: in vivo; settings: for misfolded SOD1 level in UMNs (average integrated density): hSOD1^G93A‐UeGFP mice
Description: as §1
The antibodies used are as follows: anti‐GFP (1:1000, Invitrogen; or 1:1000, Abcam) and anti‐misfolded SOD1 (B8H10, 1:250, Médimabs). Briefly, sections were treated with blocking solution (PBS, 0.05% BSA, 2% FBS, 1% Triton X‐100, and 0.1% saponin) for 30 min at room temperature and incubated with primary antibody diluted in blocking solution overnight at 4°C. Appropriate secondary fluorescent antibodies (1:500, AlexaFluor‐conjugated, Invitrogen) were added to the blocking solution at room temperature for 2 h in the dark.
50‐µm thick sections of primary motor cortex were captured using the 20× objective on an inverted epifluorescent Eclipse TE2000‐E microscope using the same settings and exposure time for all of the samples. eGFP positive (eGFP^+) UMNs in focal plane with sharp boundaries and a visible nucleus were traced using ImageJ (NIH). ROI were transferred to the misfolded SOD1 channel, and the integrated density was measured to determine the levels of misfolded SOD1 in GFP^+ UMNs only. Fifty to 90 UMNs were analyzed per mouse, and the average integrated density was reported per experimental group. For visualization purposes of misfolded SOD1 fluorescence intensity, nd2 files were opened in ImageJ and spectrum look‐up table (LUT) was applied to the appropriate channel.

## C[C@H](Oc1cc(C(F)(F)F)cc(C(F)(F)F)c1)C1CC(=O)CC(=O)C1 [NU‐9]
hSOD1^G93A‐UeGFP mice; NU-9 (20), P102
  Rotarod, group mean (Mean 1 / Mean 2 of 2way ANOVA multiple comparisons): 158.8
hSOD1^G93A‐UeGFP mice; NU-9 (20), P109
  Rotarod, group mean (Mean 1 / Mean 2 of 2way ANOVA multiple comparisons): 149.1
hSOD1^G93A‐UeGFP mice; NU-9 (20), P116
  Rotarod, group mean (Mean 1 / Mean 2 of 2way ANOVA multiple comparisons): 107.7
hSOD1^G93A‐UeGFP mice; NU-9 (100), P102
  Rotarod, group mean (Mean 1 / Mean 2 of 2way ANOVA multiple comparisons): 170
hSOD1^G93A‐UeGFP mice; NU-9 (100), P109
  Rotarod, group mean (Mean 1 / Mean 2 of 2way ANOVA multiple comparisons): 151.3
hSOD1^G93A‐UeGFP mice; NU-9 (100), P116
  Rotarod, group mean (Mean 1 / Mean 2 of 2way ANOVA multiple comparisons): 128.5
hSOD1^G93A‐UeGFP mice; P102
  Rotarod, mean difference GS vehicle vs. GS NU-9 (20): 22.8
  Rotarod, mean difference GS vehicle vs. GS NU-9 (100): 11.61
hSOD1^G93A‐UeGFP mice; P109
  Rotarod, mean difference GS vehicle vs. GS NU-9 (20): 18.74
  Rotarod, mean difference GS vehicle vs. GS NU-9 (100): 16.57
hSOD1^G93A‐UeGFP mice; P116
  Rotarod, mean difference GS vehicle vs. GS NU-9 (20): 14.44
  Rotarod, mean difference GS vehicle vs. GS NU-9 (100): -6.407
hSOD1^G93A‐UeGFP mice; NU-9 20 mg/kg/day, P60
  Rotarod, group mean (Mean 1 / Mean 2): 221.3
hSOD1^G93A‐UeGFP mice; NU-9 20 mg/kg/day, P67
  Rotarod, group mean (Mean 1 / Mean 2): 221.6
hSOD1^G93A‐UeGFP mice; NU-9 20 mg/kg/day, P74
  Rotarod, group mean (Mean 1 / Mean 2): 213.6
hSOD1^G93A‐UeGFP mice; NU-9 20 mg/kg/day, P81
  Rotarod, group mean (Mean 1 / Mean 2): 207.4
hSOD1^G93A‐UeGFP mice; NU-9 20 mg/kg/day, P88
  Rotarod, group mean (Mean 1 / Mean 2): 209.5
hSOD1^G93A‐UeGFP mice; NU-9 20 mg/kg/day, P95
  Rotarod, group mean (Mean 1 / Mean 2): 178.8
hSOD1^G93A‐UeGFP mice; NU-9 100 mg/kg/day, P60
  Rotarod, group mean (Mean 1 / Mean 2): 206.8
hSOD1^G93A‐UeGFP mice; NU-9 100 mg/kg/day, P67
  Rotarod, group mean (Mean 1 / Mean 2): 223.1
hSOD1^G93A‐UeGFP mice; NU-9 100 mg/kg/day, P74
  Rotarod, group mean (Mean 1 / Mean 2): 224
hSOD1^G93A‐UeGFP mice; NU-9 100 mg/kg/day, P81
  Rotarod, group mean (Mean 1 / Mean 2): 223.4
hSOD1^G93A‐UeGFP mice; NU-9 100 mg/kg/day, P88
  Rotarod, group mean (Mean 1 / Mean 2): 203.8
hSOD1^G93A‐UeGFP mice; NU-9 100 mg/kg/day, P95
  Rotarod, group mean (Mean 1 / Mean 2): 191
hSOD1^G93A‐UeGFP mice; vehicle vs. NU-9 20 mg/kg/day, P60
  Rotarod, Mean Diff. (vehicle minus NU-9): -28.22
hSOD1^G93A‐UeGFP mice; vehicle vs. NU-9 20 mg/kg/day, P67
  Rotarod, Mean Diff. (vehicle minus NU-9): 4.159
hSOD1^G93A‐UeGFP mice; vehicle vs. NU-9 20 mg/kg/day, P74
  Rotarod, Mean Diff. (vehicle minus NU-9): 4.103
hSOD1^G93A‐UeGFP mice; vehicle vs. NU-9 20 mg/kg/day, P81
  Rotarod, Mean Diff. (vehicle minus NU-9): -5.651
hSOD1^G93A‐UeGFP mice; vehicle vs. NU-9 20 mg/kg/day, P88
  Rotarod, Mean Diff. (vehicle minus NU-9): -17.41
hSOD1^G93A‐UeGFP mice; vehicle vs. NU-9 20 mg/kg/day, P95
  Rotarod, Mean Diff. (vehicle minus NU-9): 23.52
hSOD1^G93A‐UeGFP mice; vehicle vs. NU-9 20 mg/kg/day, P102
  Rotarod, Mean Diff. (vehicle minus NU-9): 22.8
hSOD1^G93A‐UeGFP mice; vehicle vs. NU-9 20 mg/kg/day, P109
  Rotarod, Mean Diff. (vehicle minus NU-9): 18.74
hSOD1^G93A‐UeGFP mice; vehicle vs. NU-9 20 mg/kg/day, P116
  Rotarod, Mean Diff. (vehicle minus NU-9): 14.44
hSOD1^G93A‐UeGFP mice; vehicle vs. NU-9 100 mg/kg/day, P60
  Rotarod, Mean Diff. (vehicle minus NU-9): -13.7
hSOD1^G93A‐UeGFP mice; vehicle vs. NU-9 100 mg/kg/day, P67
  Rotarod, Mean Diff. (vehicle minus NU-9): 2.704
hSOD1^G93A‐UeGFP mice; vehicle vs. NU-9 100 mg/kg/day, P74
  Rotarod, Mean Diff. (vehicle minus NU-9): -6.241
hSOD1^G93A‐UeGFP mice; vehicle vs. NU-9 100 mg/kg/day, P81
  Rotarod, Mean Diff. (vehicle minus NU-9): -21.67
hSOD1^G93A‐UeGFP mice; vehicle vs. NU-9 100 mg/kg/day, P88
  Rotarod, Mean Diff. (vehicle minus NU-9): -11.7
hSOD1^G93A‐UeGFP mice; vehicle vs. NU-9 100 mg/kg/day, P95
  Rotarod, Mean Diff. (vehicle minus NU-9): 11.37
hSOD1^G93A‐UeGFP mice; vehicle vs. NU-9 100 mg/kg/day, P102
  Rotarod, Mean Diff. (vehicle minus NU-9): 11.61
hSOD1^G93A‐UeGFP mice; vehicle vs. NU-9 100 mg/kg/day, P109
  Rotarod, Mean Diff. (vehicle minus NU-9): 16.57
hSOD1^G93A‐UeGFP mice; vehicle vs. NU-9 100 mg/kg/day, P116
  Rotarod, Mean Diff. (vehicle minus NU-9): -6.407
hSOD1^G93A‐UeGFP mice; NU-9 20 mg/kg/day po, P60
  Rotarod, Average: 221.333 s
hSOD1^G93A‐UeGFP mice; NU-9 20 mg/kg/day po, P67
  Rotarod, Average: 221.619 s
hSOD1^G93A‐UeGFP mice; NU-9 20 mg/kg/day po, P74
  Rotarod, Average: 213.619 s
hSOD1^G93A‐UeGFP mice; NU-9 20 mg/kg/day po, P81
  Rotarod, Average: 207.429 s
hSOD1^G93A‐UeGFP mice; NU-9 20 mg/kg/day po, P88
  Rotarod, Average: 209.524 s
hSOD1^G93A‐UeGFP mice; NU-9 20 mg/kg/day po, P95
  Rotarod, Average: 178.81 s
hSOD1^G93A‐UeGFP mice; NU-9 20 mg/kg/day po, P102
  Rotarod, Average: 158.81 s
hSOD1^G93A‐UeGFP mice; NU-9 20 mg/kg/day po, P109
  Rotarod, Average: 149.095 s
hSOD1^G93A‐UeGFP mice; NU-9 20 mg/kg/day po, P116
  Rotarod, Average: 107.667 s
hSOD1^G93A‐UeGFP mice; NU-9 100 mg/kg/day po, P60
  Rotarod, Average: 206.815 s
hSOD1^G93A‐UeGFP mice; NU-9 100 mg/kg/day po, P67
  Rotarod, Average: 223.074 s
hSOD1^G93A‐UeGFP mice; NU-9 100 mg/kg/day po, P74
  Rotarod, Average: 223.963 s
hSOD1^G93A‐UeGFP mice; NU-9 100 mg/kg/day po, P81
  Rotarod, Average: 223.444 s
hSOD1^G93A‐UeGFP mice; NU-9 100 mg/kg/day po, P88
  Rotarod, Average: 203.815 s
hSOD1^G93A‐UeGFP mice; NU-9 100 mg/kg/day po, P95
  Rotarod, Average: 190.963 s
hSOD1^G93A‐UeGFP mice; NU-9 100 mg/kg/day po, P102
  Rotarod, Average: 170 s
hSOD1^G93A‐UeGFP mice; NU-9 100 mg/kg/day po, P109
  Rotarod, Average: 151.259 s
hSOD1^G93A‐UeGFP mice; NU-9 100 mg/kg/day po, P116
  Rotarod, Average: 128.519 s
hSOD1^G93A‐UeGFP mice; hSOD1^G93A‐UeGFP mice, regardless of dose (20 or 100 mg/kg/day)
  rotarod performance: did not result in significant improvement
[1]; hSOD1G93A-UeGFP (NU-9 20 mg/kg/day)
  Fig. 3E group mean (integrated density of misfolded SOD1 fluorescence in UMNs): 132928
[1]; hSOD1G93A-UeGFP (NU-9 100 mg/kg/day)
  Fig. 3E group mean (integrated density of misfolded SOD1 fluorescence in UMNs): 120052
[1]; 20 mg/kg/day oral gavage P60–P120
  misfolded SOD1 level in UMNs (average integrated density): 1.33 × 10^5 ± 0.11 × 10^5 au
[1]; 100 mg/kg/day oral gavage P60–P120
  misfolded SOD1 level in UMNs (average integrated density): 1.2 × 10^5 ± 0.07 × 10^5 au
